Values joined by “and” are separate entries in the source; they are usually repeats but may differ in a detail not shown here. Identical values can stand only once. Like-named read-outs stand apart in the source and are kept apart here.
Legend:
[1] = target: T1, isolated human 20S proteasome, CT-L activity (Homo sapiens, UniProt P20618+P28074); assay: Proteasome inhibition assay in isolated human 20S proteasomes (Proteasome-Glo), CT-L activity; type: biochemical; conditions: for inhibition at 10 µM: read-out: percentage of proteasome inhibition, CT-L, isolated 20S proteasome; for percentage of proteasome inhibition, CT-L, isolated human 20S proteasome: at 100 µM, Table 1 legend: bortezomib positive control 10 µM
T1 construct: human purified erythrocyte-derived 20S proteasome; purchased Enzo Life Sciences, Inc; host or cells: human erythrocytes (natural source)
From the text: (§1) In this assay, the peptide substrates are bound to aminoluciferin (Suc-LLVY-AML for CT-L activity, Z-nLPnLD-AML for C-L, and Z-LRR-AML for T-L), leading the cleavage of these substrates by the proteasome to the release of free aminoluciferin, which is the substrate of the buffer-contained luciferase.
(§2) To evaluate human purified erythrocyte-derived 20S proteasome inhibitory activity of the chosen compounds, the Proteasome-Glo™ 3-substrate system (Promega Corporation, Madison, WI, USA) was employed. The Proteasome-Glo™ reagents of the three proteolytic activities were prepared according to the manufacturer’s instructions, aliquoted, and stored at either −20 °C or 4 °C, avoiding freezing–thaw cycles. […] The purified 20S proteasome (Enzo Life Sciences, Inc., Farmingdale, NY, USA) was diluted in HEPES buffer 10 mM, pH 7.4, to a concentration experimentally adjusted to the signal/noise ratio obtained with each particular lot of Proteasome-Glo™ reagent, in order to have a good compromise between sensitivity and linear response. […] All assays were performed in white-walled multiwell plates (Thermo Scientific™ Sterilin™ White Microtiter™ plates, Thermo Fisher Scientific, Paisley, UK) in duplicates. The proteasome solution (25 μL) was added to each well first, then the diluted solutions of the assayed compounds (25 μL), and lastly the Proteasome-Glo™ Reagent (50 μL). […] Reagents were added to the plate well on ice, and the plate was then transferred to the plate luminometer (SpectraMax®, Molecular Devices, LLC, San Jose, CA, USA) set at 37 °C, gently mixed for 30 s, and the measurements were immediately started in kinetic mode, with data collected every 5 min for at least 60 min.
(§3) All compounds were dissolved in DMSO at a concentration of 10 mM and stored at −20 °C or 4 °C. Solutions of the test compounds were prepared at their adequate dilutions in 10 mM HEPES buffer pH 7.6 before each experiment.
(§4) To calculate the proteasome activity over time, the value of mean relative luminescence units (RLU) of blank wells at each respective time point was subtracted, and then the ratio between mean RLU of the sample and mean RLU of the positive control wells was calculated for each time point and expressed as percentage.

[2] = target: T2, 20S proteasome in Jurkat cell lysates, CT-L activity (Homo sapiens, UniProt P28074); assay: Proteasome inhibition assay in cell lysates, Jurkat, CT-L; conditions: for inhibition at 10 µM: read-out: percentage of proteasome inhibition, CT-L, cell lysates Jurkat, at 10 µM; for inhibition at 100 µM: read-out: percentage of proteasome inhibition, CT-L, cell lysates Jurkat, at 100 µM
T2 sequence (P28074 60-263): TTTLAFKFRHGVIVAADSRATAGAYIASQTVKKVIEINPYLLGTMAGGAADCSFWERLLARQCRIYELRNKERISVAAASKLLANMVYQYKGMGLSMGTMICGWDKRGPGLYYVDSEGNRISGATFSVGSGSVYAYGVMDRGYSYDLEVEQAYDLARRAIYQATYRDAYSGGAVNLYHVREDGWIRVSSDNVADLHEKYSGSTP
T2 sequence (P20618 29-241 partner): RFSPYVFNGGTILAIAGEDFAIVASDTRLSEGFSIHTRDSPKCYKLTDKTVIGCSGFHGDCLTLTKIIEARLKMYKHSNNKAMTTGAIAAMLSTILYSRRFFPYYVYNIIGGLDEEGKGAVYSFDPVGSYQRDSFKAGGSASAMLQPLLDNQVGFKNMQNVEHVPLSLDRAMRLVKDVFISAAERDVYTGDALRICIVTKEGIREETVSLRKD
Experimental: Cells were obtained from several cultured cell lines: Jurkat, K562, HT-29, and HCT116. Pellets with 20 × 10^6 cells were prepared and washed with cold sterile phosphate buffered saline (PBS), 1×, pH 7.4 (Gibco, Thermo Fisher Scientific, Paisley, UK). The preparation of the lysates from several cell lines was performed based on the methodology described by Gavioli et al. [67]. Cells were resuspended in buffer containing 50 mM TRIS-HCl pH 7.4 (Nzytech, Lisboa, Portugal), 5 mM MgCl2 (≥98% purity, Merck, Hamburg, Germany), 1 mM DTT (Merck, Hamburg, Germany), 2 mM ATP (≥98% purity, Enzo Life Sciences Inc., Farmingdale, NY, USA), and 250 mM saccharose (Merck, Hamburg, Germany). Glass beads (Merck, Hamburg, Germany) equivalent to the volume of the cell suspension were added, and the mixture was vortexed for 2 min at 4 °C. Beads and cell debris were removed using 5 min centrifugation at 1000× g and 4 °C, followed by 20 min of centrifugation at 10,000× g at 4 °C. Cell lysates containing proteasomes were resuspended in “activity buffer” [50 mM TRIS-HCl (pH 7.4), 5 mM MgCl2, 1 mM DTT, 2 mM ATP (≥98% purity, Enzo Life Sciences Inc., Farmingdale, NY, USA), and 500 µM EDTA (≥98% purity, Merck, Hamburg, Germany)]. Protein concentration was determined using the Pierce™ BCA protocol (Thermo Fisher Scientific, Rockford, IL, USA). […] DMSO was added in an equal volume as used for the untreated compounds as a way to assess/control its influence in the assay. Untreated cells were used as control. In each well of a 96-well plate, 25 µL of lysate were seeded in duplicate with 25 µL of the compound to test; in the control, 25 µL of activity buffer were added to the 25 µL of lysate. A blank (50 µL of activity buffer) was added to the wells in quadruplicate. Cell lysates, pre-treated or not with different concentrations of the test compounds, were incubated for 30 min at 37 °C. […] Stock solutions (10 mM) of each substrate were prepared in DMSO, diluted in activity buffer, and 50 µL were added to all wells (final concentration of each substrate = 100 µM), followed by an incubation at 37 °C for 60 min. Samples fluorescence was measured at an excitation wavelength of 360 nm and emission of 465 nm; the fluorescence measures were performed using the GloMax-Multi + Detection System (Promega Corp., Madison, WI, USA). Activity was evaluated in fluorescence units, after being converted to percentage of proteasome inhibition and, whenever possible, expressed as IC50 by plotting the inhibition data of each compound at different concentrations against the log of the concentration of the inhibitor, using the GraphPad Prism software version 7. At least eight different concentrations of the test compounds were used.

[3] = target: T3, isolated human 20S proteasome, C-L activity (Homo sapiens, UniProt P28072+Q99436); assay: Proteasome inhibition assay in isolated human 20S proteasomes (Proteasome-Glo), C-L activity; type: biochemical; conditions: for inhibition at 10 µM: read-out: percentage of proteasome inhibition, C-L, isolated 20S proteasome; for percentage of proteasome inhibition, C-L, isolated human 20S proteasome: at 100 µM, Table 1 legend: bortezomib positive control 10 µM
T3 construct: human purified erythrocyte-derived 20S proteasome; purchased Enzo Life Sciences, Inc; host or cells: human erythrocytes (natural source)
From the text: as §1, §2, §3, §4

[4] = target: T4, 20S proteasome in HT-29 cell lysates, CT-L activity (Homo sapiens, UniProt P28074); assay: Proteasome inhibition assay in cell lysates, HT-29, CT-L; conditions: for inhibition at 10 µM: read-out: percentage of proteasome inhibition, CT-L, cell lysates HT-29, at 10 µM; for inhibition at 100 µM: read-out: percentage of proteasome inhibition, CT-L, cell lysates HT-29, at 100 µM
T4 sequence (P28074 60-263): T2 sequence (P28074 60-263)
T4 sequence (P20618 29-241 partner): T2 sequence (P20618 29-241 partner)
Experimental: (§5) Cells were obtained from several cultured cell lines: Jurkat, K562, HT-29, and HCT116. Pellets with 20 × 10^6 cells were prepared and washed with cold sterile phosphate buffered saline (PBS), 1×, pH 7.4 (Gibco, Thermo Fisher Scientific, Paisley, UK). […] Cells were resuspended in buffer containing 50 mM TRIS-HCl pH 7.4 (Nzytech, Lisboa, Portugal), 5 mM MgCl2 (≥98% purity, Merck, Hamburg, Germany), 1 mM DTT (Merck, Hamburg, Germany), 2 mM ATP (≥98% purity, Enzo Life Sciences Inc., Farmingdale, NY, USA), and 250 mM saccharose (Merck, Hamburg, Germany). Glass beads (Merck, Hamburg, Germany) equivalent to the volume of the cell suspension were added, and the mixture was vortexed for 2 min at 4 °C. Beads and cell debris were removed using 5 min centrifugation at 1000× g and 4 °C, followed by 20 min of centrifugation at 10,000× g at 4 °C. Cell lysates containing proteasomes were resuspended in “activity buffer” [50 mM TRIS-HCl (pH 7.4), 5 mM MgCl2, 1 mM DTT, 2 mM ATP (≥98% purity, Enzo Life Sciences Inc., Farmingdale, NY, USA), and 500 µM EDTA (≥98% purity, Merck, Hamburg, Germany)]. Protein concentration was determined using the Pierce™ BCA protocol (Thermo Fisher Scientific, Rockford, IL, USA). […] DMSO was added in an equal volume as used for the untreated compounds as a way to assess/control its influence in the assay. Untreated cells were used as control. In each well of a 96-well plate, 25 µL of lysate were seeded in duplicate with 25 µL of the compound to test; in the control, 25 µL of activity buffer were added to the 25 µL of lysate. A blank (50 µL of activity buffer) was added to the wells in quadruplicate. Cell lysates, pre-treated or not with different concentrations of the test compounds, were incubated for 30 min at 37 °C. […] Stock solutions (10 mM) of each substrate were prepared in DMSO, diluted in activity buffer, and 50 µL were added to all wells (final concentration of each substrate = 100 µM), followed by an incubation at 37 °C for 60 min. Samples fluorescence was measured at an excitation wavelength of 360 nm and emission of 465 nm; the fluorescence measures were performed using the GloMax-Multi + Detection System (Promega Corp., Madison, WI, USA). Activity was evaluated in fluorescence units, after being converted to percentage of proteasome inhibition and, whenever possible, expressed as IC50 by plotting the inhibition data of each compound at different concentrations against the log of the concentration of the inhibitor, using the GraphPad Prism software version 7. At least eight different concentrations of the test compounds were used.

[5] = target: T5, 20S proteasome in HCT116 cell lysates, C-L activity (Homo sapiens, UniProt P28072); assay: Proteasome inhibition assay in cell lysates, HCT116, C-L; conditions: for percentage of proteasome inhibition, C-L, cell lysates HCT116: at 100 µM; for percentage of proteasome inhibition, C-L, cell lysates HCT116 / inhibition at 100 µM: Table 2 legend: bortezomib 10 µM, NI = No inhibition; for inhibition at 100 µM: read-out: percentage of proteasome inhibition, C-L, cell lysates HCT116, at 100 µM; for inhibition at 10 µM: read-out: percentage of proteasome inhibition, C-L, cell lysates HCT-116, at 10 µM
T5 sequence (P28072 35-239 limits assumed): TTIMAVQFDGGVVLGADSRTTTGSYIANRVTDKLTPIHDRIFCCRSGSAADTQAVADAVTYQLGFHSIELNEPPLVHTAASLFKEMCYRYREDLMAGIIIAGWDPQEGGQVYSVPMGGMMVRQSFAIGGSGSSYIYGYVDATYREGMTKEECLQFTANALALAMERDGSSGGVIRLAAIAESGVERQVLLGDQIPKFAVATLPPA
T5 sequence (Q99436 44-277 partner): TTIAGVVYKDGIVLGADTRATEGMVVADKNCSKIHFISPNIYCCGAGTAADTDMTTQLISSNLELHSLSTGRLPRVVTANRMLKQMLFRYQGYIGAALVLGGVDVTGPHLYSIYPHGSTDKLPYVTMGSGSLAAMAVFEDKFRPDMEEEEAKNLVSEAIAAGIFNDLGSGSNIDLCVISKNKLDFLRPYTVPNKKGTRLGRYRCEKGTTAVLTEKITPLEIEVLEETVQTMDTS
Experimental: as §5

[6] = mean ± SD, read-out: IC50, CT-L, isolated human 20S proteasome
[7] = Table 2 legend: bortezomib 10 µM
[8] = at 100 µM, Table 2 legend: bortezomib 10 µM

SMILES	inhibition at 10 µM ([1]; at 10 µM) [%]	percentage of proteasome inhibition, CT-L, isolated human 20S proteasome [1]	IC50 [1, 6] [µM]	IC50 [2] [µM]	inhibition at 10 µM [2] [%]	inhibition at 100 µM [2, 7] [%]	inhibition at 10 µM [3] [%]	percentage of proteasome inhibition, C-L, isolated human 20S proteasome [3]	IC50 [4] [µM]	percentage of proteasome inhibition, CT-L, cell lysates HT-29 [4, 8]	inhibition at 10 µM [4] [%]	inhibition at 100 µM [4, 7] [%]	IC50 [5] [µM]	percentage of proteasome inhibition, C-L, cell lysates HCT116 [5] [%]	inhibition at 100 µM [5] [%]	inhibition at 10 µM [5] [%]	percentage of proteasome inhibition, CT-L, cell lysates Jurkat [2, 8]	also measured
Cc1ccc2ccccc2c1CSc1ncnc2c1ncn2C1OC(CO)C(O)C1O (stereo not shown) [Compound 1]	0	37.72% and 38%	–	–	0	53.5	0	54.47% and 55%	90.8	62%	0	62.1	75.6	71	71.2	0	54%	–
O=C1c2ccccc2C(=O)c2c(Nc3ccc(S(=O)(=O)N(CCO)CCO)cc3)ccc(O)c21 [Compound 2]	81.3	98%	5.6	73.2	8.23	72.1	90.8	97.86% and 98%	73.8	62%	2.11	62.2	43.5	74	74.1	11.1	72%	–
Cc1ccc(/C(=N/NS(=O)(=O)c2ccc([N+](=O)[O-])cc2)Sc2cc(Cl)c(C)cc2S(N)(=O)=O)cc1 [Compound 3]	–	91.40% and 91%	–	–	0	32.8	9.9	88.38% and 88%	–	31%	0	31.4	–	–	0	0	33%	IC50 [1]: 49.3 µM; inhibition at 10 µM [1]: 8.2%
CC(C)C[C@H](NC(=O)[C@H](Cc1ccccc1)NC(=O)c1cnccn1)B(O)O [Bortezomib, bortezomib, reference compound]	91	99.92% and 100%	–	–	–	–	33.8	92.80% and 93%	–	99.37% and 99%	–	–	–	99	–	–	99.30% and 99%	percentage of proteasome inhibition, CT-L, cell lysates Jurkat ([2]; at 10 µM): 99.63%; percentage of proteasome inhibition, CT-L, cell lysates HT-29 ([4]; at 10 µM): 97.99%; percentage of proteasome inhibition, C-L, cell lysates HCT-116 ([5]; at 10 µM): 94.21%

The next lines start with results.

inhibition at 10 µM ([1]; at 10 µM) [%]	percentage of proteasome inhibition, CT-L, isolated human 20S proteasome [1]	IC50 [1, 6] [µM]	IC50 [2] [µM]	inhibition at 10 µM [2] [%]	inhibition at 100 µM [2, 7] [%]	inhibition at 10 µM [3] [%]	percentage of proteasome inhibition, C-L, isolated human 20S proteasome [3]	IC50 [4] [µM]	percentage of proteasome inhibition, CT-L, cell lysates HT-29 [4, 8]	inhibition at 10 µM [4] [%]	inhibition at 100 µM [4, 7] [%]	IC50 [5] [µM]	percentage of proteasome inhibition, C-L, cell lysates HCT116 [5] [%]	inhibition at 100 µM [5] [%]	inhibition at 10 µM [5] [%]	percentage of proteasome inhibition, CT-L, cell lysates Jurkat [2, 8]	SMILES	also measured
3.3	69.90% and 70%	51.1	24.3	10.5	98	5.8	77.65% and 78%	31.3	98%	10.1	97.9	28.9	90	90.1	69.2	–	C#CCCN1CCN(c2ccc(-n3c(=O)ccc4cnc5ccc(-c6ccc(N)nc6)cc5c43)cc2C(F)(F)F)CC1 [Compound 4, 9-(6-Aminopyridin-3-yl)-1-(4-(4-(but-3-yn-1-yl)piperazin-1-yl)-3-(trifluoromethyl)phenyl)benzo[h][1,6]naphthyridin-2(1H)-one]	–
2.85	35.60% and 36%	–	–	0	63.7	0	33.57% and 34%	84.3	81%	0	81.2	–	28	28.1	0	64%	CC(C)c1nc(CN(C)C(=O)N[C@@H](CCN2CCOCC2)C(=O)N[C@H](CC[C@H](Cc2ccccc2)NC(=O)OCc2cncs2)Cc2ccccc2)cs1 [Compound 5, cobicistat, reference compound]	–

From article PMC10458307, “New Scaffolds of Proteasome Inhibitors: Boosting Anticancer Potential by Exploiting the Synergy of In Silico and In Vitro Methodologies” (Pharmaceuticals, 2023)
